Assay results reported in PubChem BioAssay (NCI).
“And” between values parts separate entries of the source, which are not always exact repeats. Equal entries are not always repeated.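 These data come from cells grown in 96-well plates and exposed to compound for 48 hours at five concentrations. Abbreviation: GI50, concentration required for 50% inhibition of growth. TGI marks complete inhibition of growth.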

test system: SF-268 CNS; assay: NCI-60 cell line screen, 48 h

Row | SMILES | TGI
1 | COC(=O)C1OC(Oc2cc(O)c3c(=O)cc(-c4ccc(O)cc4)oc3c2)C(O)C(O)C1O (stereo unspecified) | > 100 µM
2 | CCN(CC)/C(Cl)=C(Cl)\C(=C1\Nc2ccc(OC)cc21)[N+](=O)[O-] | > 100 µM
3 | N#Cc1c(-c2ccccc2)[nH]c2ccccc2c1=O | > 100 µM
4 | C=CCn1c(=O)n(CC=C)c(=O)n(CC=C)c1=O | > 100 µM
5 | CC12CCC(C(=O)OC1=O)C2(C)C (stereo unspecified) | > 100 µM
6 | CC1(C)c2ccccc2C(=O)C12CCC(=O)CC2 | > 100 µM
7 | O=C1C(Cl)C(c2ccccc2)N1n1cnc2ccccc2c1=O (stereo unspecified) | > 100 µM
8 | CN(C)C(=O)OCOC(=O)N(C)C | > 100 µM
9 | CCOC(=O)C1=C(Nc2cccc(OC)c2)OCC1=O | > 100 µM
10 | CC(=O)OCC1OC(Nc2ncc(-c3ccc(C)cc3)s2)C(OC(C)=O)C(OC(C)=O)C1OC(C)=O (stereo unspecified) | > 100 µM
11 | CCCCN1C=CN2c3nc4cc(C)c(C)cc4n3C(C(=O)OC)=C(C(=O)OC)C12 (stereo unspecified) | > 100 µM
12 | C/C(=C1/CCCC2(N=NCC2c2ccccc2)C1=O)c1ccccc1 (stereo unspecified) | > 100 µM
13 | CO[C@H]1[C@@H](O)[C@@H](C)O[C@@H](O[C@H]2CC[C@@]3(C)[C@H](CC[C@@H]4[C@@H]3CC[C@]3(C)[C@@H](C5=CC(=O)OC5)[C@@H](OC(C)=O)C[C@]43O)C2)[C@@H]1O | 0.0855 µM

test system: KM12 colon; assay: NCI-60 cell line screen, 48 h

Row | SMILES | TGI | GI50
14 | CN(C)C(=O)NCCN1CCCCCc2ccccc21 | > 100 µM | 
15 | Cc1ccc2c(c1CCCC(C)(C)O)C(=O)C(=O)C(C(C)C)=C2O | > 100 µM | 
16 | CCOC(=O)c1nc2c(Cl)c3ncccc3cc2[nH]c1=O | > 100 µM | 
17 | CC1(C#N)CC(C)(C)C(/C=C2/CC(C)(C)C(/C=C3/OC(=N)CC3(C)C)=N2)=N1 (stereo unspecified) | 56.2 µM | 
18 | CC(=O)Oc1ccccc1-c1cc2ccccc2oc1=O | > 100 µM | 
19 | C=C1C(=O)O[C@H]2[C@H]1[C@@H](OC(=O)C=C(C)C)CC1=C[C@@H](C[C@@]3(C)O[C@@H]23)OC1=O | 15.7 µM and 29.7 µM | 10.4 µM
20 | C[C@]12CCC(=O)C=C1CC[C@@H]1C2CC[C@]2(C)c3nn(-c4ccc(F)cc4)nc3CC12 (stereo partly specified) | > 100 µM | 
21 | Cc1ccc2nc(-c3ccc(N)c(I)c3)sc2c1 | 56.1 µM | 
22 | O=c1[nH]cc(COCC(F)(F)C(F)(F)C(F)(F)C(F)F)c(=O)[nH]1 | > 100 µM | 
23 | CCC1c2[nH]c3ccccc3c2C[C@H]2C(=O)NC(COC(C)(C)C)C(=O)N12 (stereo partly specified) | > 100 µM | 
24 | O=C1NC(=O)C(CCO)(c2ccccc2)C(=O)N1 | > 100 µM | 
25 | Cc1cn(C2CC(ON3C(=O)c4ccccc4C3=O)C(CO)O2)c(=O)[nH]c1=O (stereo unspecified) | > 10 µM | 
26 | Cc1ccc(C2CC(c3ccco3)=NN2c2ccccc2)o1 (stereo unspecified) | > 100 µM | 
27 | COC(=O)C(=C/c1ccc(OC)cc1)/C(C(=O)O)=C(/C)c1ccccc1 | > 100 µM | 
28 | COC(=O)c1ccc(/C=C2\N=C(C)OC2=O)cc1 | > 100 µM | 
29 | Nc1ccc(C(=O)NN2C(=O)C(Cl)C2c2ccccc2Cl)cc1 (stereo unspecified) | 24.5 µM | 
30 | CCOC(=O)c1csc(NC(=O)C(C)N2CCCCC2)n1 (stereo unspecified) | > 100 µM | 
31 | N#Cc1sc2nc(/C=C3/C=CC=CC3=O)c(O)n2c1N | > 100 µM | 

Row | SMILES | TGI | GI50
32 | CCN1CCN(c2ccc(Nc3ccnc4ccc5nn(C)nc5c34)cc2)CC1 | 24 µM | 
33 | Cc1cccc2c1Oc1cc(Cl)ccc1C2NC(=O)CCN1CCOCC1 (stereo unspecified) | > 100 µM | 
34 | O=C(O)c1ccc(NNc2cc(=O)[nH]c(=O)[nH]2)cc1 | > 100 µM | 
35 | COC(=O)C1OC(Oc2cc(O)c3c(=O)cc(-c4ccc(O)cc4)oc3c2)C(O)C(O)C1O (stereo unspecified) | > 100 µM | 
36 | CCN(CC)/C(Cl)=C(Cl)\C(=C1\Nc2ccc(OC)cc21)[N+](=O)[O-] | > 100 µM | 
37 | N#Cc1c(-c2ccccc2)[nH]c2ccccc2c1=O | > 100 µM | 
38 | C=CCn1c(=O)n(CC=C)c(=O)n(CC=C)c1=O | > 100 µM | 
39 | CC12CCC(C(=O)OC1=O)C2(C)C (stereo unspecified) | > 100 µM | 
40 | CC1(C)c2ccccc2C(=O)C12CCC(=O)CC2 | > 100 µM | 
41 | O=C1C(Cl)C(c2ccccc2)N1n1cnc2ccccc2c1=O (stereo unspecified) | > 100 µM | 
42 | CN(C)C(=O)OCOC(=O)N(C)C | > 100 µM | 
43 | CCOC(=O)C1=C(Nc2cccc(OC)c2)OCC1=O | > 100 µM | 
44 | CC(=O)OCC1OC(Nc2ncc(-c3ccc(C)cc3)s2)C(OC(C)=O)C(OC(C)=O)C1OC(C)=O (stereo unspecified) | > 94.1 µM | 
45 | CCCCCC(C[N+]1(C)CCOCC1)C(=O)/C=C/c1ccccc1 (stereo unspecified) | 8.71 µM | 
46 | COc1ccc2c(c1)CC[C@@H]1[C@@H]2CC[C@]2(C)C(=O)/C(=C/c3ccc(OC)c(OC)c3)C[C@@H]12 | > 100 µM | 
47 | C/C(=C1/CCCC2(N=NCC2c2ccccc2)C1=O)c1ccccc1 (stereo unspecified) | 31.3 µM | 
48 | CO[C@H]1[C@@H](O)[C@@H](C)O[C@@H](O[C@H]2CC[C@@]3(C)[C@H](CC[C@@H]4[C@@H]3CC[C@]3(C)[C@@H](C5=CC(=O)OC5)[C@@H](OC(C)=O)C[C@]43O)C2)[C@@H]1O | 0.592 µM | 

test system: M14 melanoma; assay: NCI-60 cell line screen, 48 h

Row | SMILES | TGI
49 | CN(C)C(=O)NCCN1CCCCCc2ccccc21 | > 100 µM
50 | Cc1ccc2c(c1CCCC(C)(C)O)C(=O)C(=O)C(C(C)C)=C2O | > 100 µM
51 | CCOC(=O)c1nc2c(Cl)c3ncccc3cc2[nH]c1=O | > 100 µM
52 | CC1(C#N)CC(C)(C)C(/C=C2/CC(C)(C)C(/C=C3/OC(=N)CC3(C)C)=N2)=N1 (stereo unspecified) | 85.8 µM
53 | CC(=O)Oc1ccccc1-c1cc2ccccc2oc1=O | > 100 µM
54 | C[C@]12CCC(=O)C=C1CC[C@@H]1C2CC[C@]2(C)c3nn(-c4ccc(F)cc4)nc3CC12 (stereo partly specified) | > 100 µM
55 | Cc1ccc2nc(-c3ccc(N)c(I)c3)sc2c1 | > 100 µM
56 | O=c1[nH]cc(COCC(F)(F)C(F)(F)C(F)(F)C(F)F)c(=O)[nH]1 | > 100 µM
57 | CCC1c2[nH]c3ccccc3c2C[C@H]2C(=O)NC(COC(C)(C)C)C(=O)N12 (stereo partly specified) | > 100 µM
58 | Cc1cn(C2CC(ON3C(=O)c4ccccc4C3=O)C(CO)O2)c(=O)[nH]c1=O (stereo unspecified) | > 10 µM
59 | Cc1ccc(C2CC(c3ccco3)=NN2c2ccccc2)o1 (stereo unspecified) | > 100 µM
60 | COC(=O)C(=C/c1ccc(OC)cc1)/C(C(=O)O)=C(/C)c1ccccc1 | > 100 µM
61 | COC(=O)c1ccc(/C=C2\N=C(C)OC2=O)cc1 | > 100 µM
62 | Nc1ccc(C(=O)NN2C(=O)C(Cl)C2c2ccccc2Cl)cc1 (stereo unspecified) | 25.9 µM
63 | CCOC(=O)c1csc(NC(=O)C(C)N2CCCCC2)n1 (stereo unspecified) | > 100 µM
64 | O=C1c2cc3c(cc2CC12Cc1cc4c(cc1C2=O)CCC4)CCCC3 (stereo unspecified) | > 100 µM

Row | SMILES | TGI
65 | N#Cc1sc2nc(/C=C3/C=CC=CC3=O)c(O)n2c1N | > 100 µM
66 | CCN1CCN(c2ccc(Nc3ccnc4ccc5nn(C)nc5c34)cc2)CC1 | 30 µM
67 | Cc1cccc2c1Oc1cc(Cl)ccc1C2NC(=O)CCN1CCOCC1 (stereo unspecified) | > 100 µM
68 | O=C(O)c1ccc(NNc2cc(=O)[nH]c(=O)[nH]2)cc1 | > 100 µM
69 | CCN(CC)/C(Cl)=C(Cl)\C(=C1\Nc2ccc(OC)cc21)[N+](=O)[O-] | > 100 µM
70 | N#Cc1c(-c2ccccc2)[nH]c2ccccc2c1=O | > 100 µM
71 | C=CCn1c(=O)n(CC=C)c(=O)n(CC=C)c1=O | > 100 µM
72 | CC12CCC(C(=O)OC1=O)C2(C)C (stereo unspecified) | > 100 µM
73 | CC1(C)c2ccccc2C(=O)C12CCC(=O)CC2 | > 100 µM
74 | O=C1C(Cl)C(c2ccccc2)N1n1cnc2ccccc2c1=O (stereo unspecified) | > 100 µM
75 | CCOC(=O)C1=C(Nc2cccc(OC)c2)OCC1=O | > 100 µM
76 | CCCCN1C=CN2c3nc4cc(C)c(C)cc4n3C(C(=O)OC)=C(C(=O)OC)C12 (stereo unspecified) | > 100 µM
77 | CCCCCC(C[N+]1(C)CCOCC1)C(=O)/C=C/c1ccccc1 (stereo unspecified) | 25.9 µM
78 | COc1ccc2c(c1)CC[C@@H]1[C@@H]2CC[C@]2(C)C(=O)/C(=C/c3ccc(OC)c(OC)c3)C[C@@H]12 | > 100 µM
79 | C/C(=C1/CCCC2(N=NCC2c2ccccc2)C1=O)c1ccccc1 (stereo unspecified) | 29 µM
80 | CO[C@H]1[C@@H](O)[C@@H](C)O[C@@H](O[C@H]2CC[C@@]3(C)[C@H](CC[C@@H]4[C@@H]3CC[C@]3(C)[C@@H](C5=CC(=O)OC5)[C@@H](OC(C)=O)C[C@]43O)C2)[C@@H]1O | 0.189 µM

test system: BT-549 breast; assay: NCI-60 cell line screen, 48 h

Row | SMILES | TGI
81 | CCOC(=O)c1nc2c(Cl)c3ncccc3cc2[nH]c1=O | 94.7 µM
82 | CC(=O)Oc1ccccc1-c1cc2ccccc2oc1=O | > 100 µM
83 | C[C@]12CCC(=O)C=C1CC[C@@H]1C2CC[C@]2(C)c3nn(-c4ccc(F)cc4)nc3CC12 (stereo partly specified) | > 100 µM
84 | Cc1ccc2nc(-c3ccc(N)c(I)c3)sc2c1 | > 100 µM
85 | CCC1c2[nH]c3ccccc3c2C[C@H]2C(=O)NC(COC(C)(C)C)C(=O)N12 (stereo partly specified) | > 100 µM
86 | Cc1cn(C2CC(ON3C(=O)c4ccccc4C3=O)C(CO)O2)c(=O)[nH]c1=O (stereo unspecified) | > 10 µM
87 | Cc1cccc2c1Oc1cc(Cl)ccc1C2NC(=O)CCN1CCOCC1 (stereo unspecified) | > 100 µM
88 | O=C(O)c1ccc(NNc2cc(=O)[nH]c(=O)[nH]2)cc1 | > 100 µM
89 | CCN(CC)/C(Cl)=C(Cl)\C(=C1\Nc2ccc(OC)cc21)[N+](=O)[O-] | > 100 µM
90 | N#Cc1c(-c2ccccc2)[nH]c2ccccc2c1=O | 69.8 µM
91 | CC1(C)c2ccccc2C(=O)C12CCC(=O)CC2 | > 100 µM
92 | COc1ccc2c(c1)CC[C@@H]1[C@@H]2CC[C@]2(C)C(=O)/C(=C/c3ccc(OC)c(OC)c3)C[C@@H]12 | > 100 µM
93 | CO[C@H]1[C@@H](O)[C@@H](C)O[C@@H](O[C@H]2CC[C@@]3(C)[C@H](CC[C@@H]4[C@@H]3CC[C@]3(C)[C@@H](C5=CC(=O)OC5)[C@@H](OC(C)=O)C[C@]43O)C2)[C@@H]1O | 0.161 µM

test system: HS 578T breast; assay: NCI-60 cell line screen, 48 h

Row | SMILES | TGI
94 | CN(C)C(=O)NCCN1CCCCCc2ccccc21 | > 100 µM
95 | CCOC(=O)c1nc2c(Cl)c3ncccc3cc2[nH]c1=O | > 100 µM
96 | CC1(C#N)CC(C)(C)C(/C=C2/CC(C)(C)C(/C=C3/OC(=N)CC3(C)C)=N2)=N1 (stereo unspecified) | 58.9 µM
97 | CC(=O)Oc1ccccc1-c1cc2ccccc2oc1=O | > 100 µM
98 | C[C@]12CCC(=O)C=C1CC[C@@H]1C2CC[C@]2(C)c3nn(-c4ccc(F)cc4)nc3CC12 (stereo partly specified) | > 100 µM
99 | Cc1ccc2nc(-c3ccc(N)c(I)c3)sc2c1 | > 100 µM
100 | CCC1c2[nH]c3ccccc3c2C[C@H]2C(=O)NC(COC(C)(C)C)C(=O)N12 (stereo partly specified) | > 100 µM
101 | Cc1cn(C2CC(ON3C(=O)c4ccccc4C3=O)C(CO)O2)c(=O)[nH]c1=O (stereo unspecified) | > 10 µM
102 | O=C1c2cc3c(cc2CC12Cc1cc4c(cc1C2=O)CCC4)CCCC3 (stereo unspecified) | > 100 µM
103 | N#Cc1sc2nc(/C=C3/C=CC=CC3=O)c(O)n2c1N | > 100 µM
104 | O=C(O)c1ccc(NNc2cc(=O)[nH]c(=O)[nH]2)cc1 | > 100 µM
105 | CCN(CC)/C(Cl)=C(Cl)\C(=C1\Nc2ccc(OC)cc21)[N+](=O)[O-] | > 100 µM
